Legend:
[1] = molecular target: Acetyl Cholinestrase (AChE) (Electrophorus electricus, UniProt O42275); test: Ellman assay (acetylthiocholine/DTNB, […] nm) with electric eel AChE; assay type: biochemical; details: read-out: EC50 (the source's name) (converted)
[2] = molecular target: Jack bean Urease (Canavalia ensiformis, UniProt P07374); test: indophenol urease assay (ammonia production, […] nm); assay type: biochemical
Sequence of Jack bean Urease (P07374 whole entry, looked up): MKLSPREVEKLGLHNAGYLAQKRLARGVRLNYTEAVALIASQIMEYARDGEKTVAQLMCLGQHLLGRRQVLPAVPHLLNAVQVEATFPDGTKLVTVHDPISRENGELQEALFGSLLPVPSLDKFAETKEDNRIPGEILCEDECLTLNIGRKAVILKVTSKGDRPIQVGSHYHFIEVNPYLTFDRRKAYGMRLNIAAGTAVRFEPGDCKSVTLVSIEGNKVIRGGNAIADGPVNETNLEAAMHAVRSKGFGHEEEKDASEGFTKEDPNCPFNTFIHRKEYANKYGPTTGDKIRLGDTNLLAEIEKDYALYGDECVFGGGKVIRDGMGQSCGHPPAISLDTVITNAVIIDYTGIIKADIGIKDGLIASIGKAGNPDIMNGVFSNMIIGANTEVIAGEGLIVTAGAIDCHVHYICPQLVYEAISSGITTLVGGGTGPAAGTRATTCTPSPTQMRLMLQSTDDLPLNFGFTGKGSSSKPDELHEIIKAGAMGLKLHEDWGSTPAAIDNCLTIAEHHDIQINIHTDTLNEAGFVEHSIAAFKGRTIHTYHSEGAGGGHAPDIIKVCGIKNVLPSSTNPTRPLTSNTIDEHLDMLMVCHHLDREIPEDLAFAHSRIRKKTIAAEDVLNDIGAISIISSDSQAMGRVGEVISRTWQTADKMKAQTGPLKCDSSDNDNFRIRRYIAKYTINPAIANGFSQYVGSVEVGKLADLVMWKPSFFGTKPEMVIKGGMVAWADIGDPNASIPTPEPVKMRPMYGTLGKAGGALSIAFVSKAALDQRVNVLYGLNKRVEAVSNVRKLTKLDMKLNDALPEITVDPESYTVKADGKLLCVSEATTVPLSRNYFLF

Sequence of Acetyl Cholinestrase (AChE) (O42275 24-633): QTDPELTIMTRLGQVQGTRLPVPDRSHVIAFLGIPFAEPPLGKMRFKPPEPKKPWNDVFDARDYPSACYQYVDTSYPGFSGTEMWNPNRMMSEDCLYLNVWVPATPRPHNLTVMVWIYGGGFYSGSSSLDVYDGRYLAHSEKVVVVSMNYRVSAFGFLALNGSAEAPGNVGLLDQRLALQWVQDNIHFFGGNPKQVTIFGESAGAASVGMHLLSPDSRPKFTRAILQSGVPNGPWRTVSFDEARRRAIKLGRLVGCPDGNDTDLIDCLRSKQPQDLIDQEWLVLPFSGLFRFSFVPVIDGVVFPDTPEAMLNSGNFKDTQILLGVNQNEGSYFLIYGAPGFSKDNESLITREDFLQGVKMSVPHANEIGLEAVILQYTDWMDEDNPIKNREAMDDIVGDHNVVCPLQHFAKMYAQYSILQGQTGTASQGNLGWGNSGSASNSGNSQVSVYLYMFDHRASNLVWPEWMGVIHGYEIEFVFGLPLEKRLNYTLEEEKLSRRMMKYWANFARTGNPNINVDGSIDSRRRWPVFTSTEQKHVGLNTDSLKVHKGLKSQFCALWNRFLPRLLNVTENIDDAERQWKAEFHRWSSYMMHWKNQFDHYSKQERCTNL

Compound	IC50 [1] [µM]	% Inhibition [2] [% Inhibition]
CC(C)c1ccc(CCCCCCCCCCCCCCCCCO)cc1 [compound 1, sorokiniol]	9.08	
NC(N)=S [thiourea]		95 ± 1.50

— paper PMC4899901, “Sorokiniol: a new enzymes inhibitory metabolite from fungal endophyte Bipolaris sorokiniana LK12” (BMC Microbiology, 2016)
